In brackets after ≈: the same amount, converted by molar mass.
Columns and labels:
[1] = Cytotoxicity against mouse J774A1 cells after 72 hrs by MTT assay; assay type: cell-based, J774.A1
Leishmania donovani [2] = test: Antileishmanial activity against Leishmania donovani MHOM/IN/Dd8 amastigote infected in hamster assessed as inhibition of amastigote multiplication at 50 mg/kg, ip for 5 days; assay type: functional; conditions: 120 h, route intraperitoneal
Leishmania donovani [3] = test: Antileishmanial activity against Leishmania donovani MHOM/IN/Dd8 promastigote carrying firefly luciferase gene assessed as relative luminescence unit at 40 ug/mL after 72 hrs; assay type: functional; conditions: MHOM/IN/Dd8, 72 h
Leishmania donovani [4] = test: Antileishmanial activity against Leishmania donovani MHOM/IN/Dd8 amastigote carrying firefly luciferase gene infected in mouse J774A1 cells assessed as relative luminescence unit after 72 hrs; assay type: functional, organism-based, J774.A1
Leishmania donovani [5] = test: Antileishmanial activity against Leishmania donovani MHOM/IN/Dd8 promastigote carrying firefly luciferase gene assessed as relative luminescence unit after 72 hrs; assay type: functional, organism-based
[6] = Selectivity index, ratio of CC50 for mouse J774A1 cells to IC50 for Leishmania donovani MHOM/IN/Dd8 amastigote; assay type: functional, J774.A1
Leishmania donovani [7] = test: Antileishmanial activity against Leishmania donovani MHOM/IN/Dd8 amastigote infected in hamster assessed as inhibition of amastigote multiplication at 30 mg/kg, po for 5 days; assay type: functional; conditions: MHOM/IN/Dd8, 120 h
Leishmania donovani [8] = test: Antileishmanial activity against Leishmania donovani MHOM/IN/Dd8 amastigote infected in hamster assessed as inhibition of amastigote multiplication at 40 mg/kg, ip for 5 days; assay type: functional; conditions: 120 h, route intraperitoneal
[9] = Leishmania donovani, MHOM/IN/Dd8, J774.A1, 72 h, read-out: IC50
[10] = Leishmania donovani, MHOM/IN/Dd8, 72 h, read-out: IC50

IC50 (Leishmania donovani [4]; [9]) | IC50 (Leishmania donovani [5]; [10]) | IC50 (Leishmania donovani [4]; j774.a1) | IC50 (Leishmania donovani [5]) | SMILES | CC50 at 72 h [1] | inhibition in vivo at 50 mg/kg (Leishmania donovani [2]) | inhibition at 40 µg/mL (Leishmania donovani [3]) | Ratio CC50/IC50 [6] | inhibition in vivo at 30 mg/kg (Leishmania donovani [7]) | inhibition in vivo at 40 mg/kg (Leishmania donovani [8])
0.75 µg/mL (≈ 1.29 µM) | 1.94 µg/mL (≈ 3.35 µM) |  |  | COC(=O)C1=C(C)N(c2ccc(OC)cc2)C(C)=C(C(=O)OC)C1[C@@H]1O[C@H]2OC(C)(C)O[C@H]2[C@@H]1OCc1ccccc1 | 14.1 µg/mL (≈ 24.4 µM) | 26.8% | > 80% | 18.93 |  | 
8.08 µg/mL (≈ 13.3 µM) | 1.65 µg/mL (≈ 2.72 µM) |  |  | CCOC(=O)C1=C(C)N(c2ccc(OC)cc2)C(C)=C(C(=O)OCC)C1[C@@H]1O[C@H]2OC(C)(C)O[C@H]2[C@@H]1OCc1ccccc1 | 59.9 µg/mL (≈ 98.6 µM) |  | > 80% | 7.42 |  | 
3.8 µg/mL (≈ 6.51 µM) | 1.86 µg/mL (≈ 3.18 µM) |  |  | COC(=O)C1=C(C)N(c2ccc(Cl)cc2)C(C)=C(C(=O)OC)C1[C@@H]1O[C@H]2OC(C)(C)O[C@H]2[C@@H]1OCc1ccccc1 | 4.22 µg/mL (≈ 7.23 µM) |  | > 80% | 1.109 |  | 
 |  | Not Active | Not Active | COC(=O)C1=C(C)N(c2ccc(N)cc2)C(C)=C(C(=O)OC)C1[C@@H]1O[C@H]2OC(C)(C)O[C@H]2[C@@H]2OC(C)(C)O[C@@H]21 |  |  | > 80% |  |  | 
10.1 µg/mL (≈ 19.2 µM) | 3.72 µg/mL (≈ 7.04 µM) |  |  | COC(=O)C1=C(C)N(c2ccc(Cl)c(Cl)c2)C(C)=C(C(=O)OC)C1[C@@H]1O[C@H]2OC(C)(C)O[C@H]2[C@@H]1O | 29.9 µg/mL (≈ 56.7 µM) |  | > 80% | 2.96 |  | 
 |  | Not Active | Not Active | CCOC(=O)C1=C(C)N(c2ccc(C)cc2)C(C)=C(C(=O)OCC)C1[C@@H]1O[C@H]2OC(C)(C)O[C@H]2[C@@H]1OC |  |  | > 80% |  |  | 
19.1 µg/mL (≈ 37.5 µM) | 1.94 µg/mL (≈ 3.82 µM) |  |  | COC(=O)C1=C(C)N(c2ccc(Cl)cc2)C(C)=C(C(=O)OC)C1[C@@H]1O[C@H]2OC(C)(C)O[C@H]2[C@@H]1OC | 82.4 µg/mL (≈ 162 µM) |  | > 80% | 4.32 |  | 
 | 3.67 µg/mL (≈ 6.47 µM) | Not Active |  | COC(=O)C1=C(C)N(c2ccc(F)cc2)C(C)=C(C(=O)OC)C1[C@@H]1O[C@H]2OC(C)(C)O[C@H]2[C@@H]1OCc1ccccc1 |  |  | > 80% |  |  | 
4.89 µg/mL (≈ 8.68 µM) | 3.62 µg/mL (≈ 6.42 µM) |  |  | COC(=O)C1=C(C)N(c2ccc(C)cc2)C(C)=C(C(=O)OC)C1[C@@H]1O[C@H]2OC(C)(C)O[C@H]2[C@@H]1OCc1ccccc1 | 7.66 µg/mL (≈ 13.6 µM) |  | > 80% |  |  | 
4.42 µg/mL (≈ 8.78 µM) | 12.4 µg/mL (≈ 24.6 µM) |  |  | COC(=O)C1=C(C)N(c2ccc(OC)cc2)C(C)=C(C(=O)OC)C1[C@@H]1O[C@H]2OC(C)(C)O[C@H]2[C@@H]1OC | 18.6 µg/mL (≈ 37 µM) |  | > 80% | 4.21 |  | 
3.57 µg/mL (≈ 6.46 µM) | 0.88 µg/mL (≈ 1.59 µM) |  |  | COC(=O)C1=C(C)N(c2ccc(Br)cc2)C(C)=C(C(=O)OC)C1[C@@H]1O[C@H]2OC(C)(C)O[C@H]2[C@@H]1OC | 48.5 µg/mL (≈ 87.8 µM) | 43.9% | > 80% | 13.58 |  | 
4.45 µg/mL (≈ 9.13 µM) | 1.74 µg/mL (≈ 3.57 µM) |  |  | COC(=O)C1=C(C)N(c2ccc(C)cc2)C(C)=C(C(=O)OC)C1[C@@H]1O[C@H]2OC(C)(C)O[C@H]2[C@@H]1OC | 33.1 µg/mL (≈ 67.8 µM) | 58.8% | > 80% | 7.43 |  | 
6.18 µg/mL (≈ 11.6 µM) | 0.22 µg/mL (≈ 0.414 µM) |  |  | CCOC(=O)C1=C(C)N(c2ccccc2OC)C(C)=C(C(=O)OCC)C1[C@@H]1O[C@H]2OC(C)(C)O[C@H]2[C@@H]1OC | 49.7 µg/mL (≈ 93.5 µM) | 49.7% | > 80% | 8.04 |  | 
 |  | Not Active | Not Active | COC(=O)C1=C(C)N(c2ccc(OC)cc2)C(C)=C(C(=O)OC)C1[C@@H]1O[C@H]2OC(C)(C)O[C@H]2[C@@H]2OC(C)(C)O[C@@H]21 |  |  | > 80% |  |  | 
14.3 µg/mL (≈ 25.4 µM) | 4.17 µg/mL (≈ 7.39 µM) |  |  | COC(=O)C1=C(C)N(c2ccc(Cl)cc2)C(C)=C(C(=O)OC)C1[C@@H]1O[C@H]2OC(C)(C)O[C@H]2[C@@H]2OC(C)(C)O[C@@H]21 | 15.2 µg/mL (≈ 27 µM) |  | > 80% | 1.06 |  | 
3.85 µg/mL (≈ 7.79 µM) | 0.86 µg/mL (≈ 1.74 µM) |  |  | COC(=O)C1=C(C)N(c2ccc(Cl)cc2)C(C)=C(C(=O)OC)C1[C@@H]1O[C@H]2OC(C)(C)O[C@H]2[C@@H]1O | 35.5 µg/mL (≈ 71.9 µM) | 44.9% | > 80% | 9.21 |  | 
12.1 µg/mL (≈ 29.7 µM) | 0.643 µg/mL (≈ 1.58 µM) |  |  | CCCCCCCCCCCCCCCCOP(=O)([O-])OCC[N+](C)(C)C [MILTEFOSINE] | 31.3 µg/mL (≈ 76.8 µM) |  |  | 2.58 | 95% | 
3.59 µg/mL (≈ 10.5 µM) | 3.23 µg/mL (≈ 9.49 µM) |  |  | N=C(N)c1ccc(OCCCCCOc2ccc(C(=N)N)cc2)cc1 [PENTAMIDINE] | 3.91 µg/mL (≈ 11.5 µM) |  |  | 1.08 |  | 92%

Reference: ChEMBL document CHEMBL1165872, “Synthesis and molecular docking studies of 1-phenyl-4-glycosyl-dihydropyridines as potent antileishmanial agents” (Eur J Med Chem, 2010)
